Laboratory results published in PMC12621189, “Optimization of Selective and CNS Penetrant Alkyne-Based TREK Inhibitors: The Discovery and Characterization of ONO-9517601 (VU6022856) and ONO-7927846 (VU6024391)” (Journal of Medicinal Chemistry, 2025).

Assays:
[1] = Liver microsome intrinsic clearance, human; format: in vitro ADME; conditions: for Predicted CLhep human: from microsomal CLint; for CLint scaled at 1 µM: pH 7.4, human liver microsomes, predicted intrinsic clearance, read-out: LMS CLINT human
How it was run: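 Incubation in 100 mM potassium phosphate pH 7.4 with 3 mM MgCl2 at 37 °C, started with 1 mM NADPH after 5 min preincubation; sampled 0–45 min, quenched in acetonitrile, LC/MS/MS. Half-life from ln % remaining vs time; CLint scaled with 20 (human) or 45 (rat) factors, CLhep using Qh 21 (human) or 70 (rat) mL/min/kg.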

[2] = Rat brain to plasma ratio (Kp, Kp,uu); format: in vivo; conditions: male, Sprague Dawley, intravenous, 0.2 mg/kg; for Kp uu at 15 min: brain and plasma (unbound), rat unbound brain:unbound plasma; for Kp at 15 min: brain and plasma, rat brain:plasma
Description: Determination of brain to plasma ratio:
All animal study procedures were approved by the Institutional Animal Care and Use Committee and were conducted in accordance with the National Institutes of Health regulations of animal care covered in Principles of Laboratory Animal Care (National Institutes of Health). All rats were fasted overnight prior to testing.
For determination of the brain over plasma ratio (Kp), compounds were formulated in 8% ethanol, 32% PEG400 and 60% DMSO (v/v/v) and administered as a single 0.2 mg/kg IV dose (1 mL/kg) to male, Sprague Dawley rats (n = 1) via injection into a surgically-implanted jugular vein catheter. At 15 min post dosing, blood sample was collected into chilled, K2EDTA anticoagulant-fortified tube and immediately placed on wet ice. The blood sample was then centrifuged (1700 rcf, 5 minutes, 4 °C) to obtain plasma sample. At the same post-administration time point, whole brain sample was obtained by rapid dissection, rinsed with PBS, and immediately frozen in individual tissue collection box (dry ice). All brain and plasma samples were stored at -80 °C until […]
Sample Analysis: Concentrations in plasma and brain homogenates were quantified by liquid chromatography tandem mass spectrometry (LC-MS/MS). Whole brains were homogenized in 3 mL of 70:30 IPA:water in a mini bead beater for 3 min, and centrifuged at 3,500 g for 5 min. 5 uL of the supernatant was diluted in 15 uL of blank plasma for quantification of the analytes. Plasma samples were centrifuged at 3,500 g for 5 min. A standard curve was generated by diluting the analytes DMSO stocks with blank plasma to obtain a final concentration of 10,000 ng/ml followed by a serial dilution down to 0.5 ng/ml. Quality controls were generated by a serial dilution of the 5,000 ng/ml standard curve solution in blank plasma to obtain 3 concentrations of 500, 50, and 5 ng/ml. 20 uL of brain diluted in plasma, plasma, blank plasma, standard curve and QC samples were loaded in a V-bottom 96-well plate. 120 uL of acetonitrile containing 0.05 uM carbamazepine (internal standard) was added to each well and the plate was centrifuged at 3,500 g for 5 min. 60 uL of the supernatant of each well (protein free) was transferred to a new 96-well plate containing 60 uL of water. The plates were sealed for analysis by LC-MS/MS.
Plasma and brain tissue samples originating from in vivo studies were analyzed by electrospray ionization using an AB Sciex Q-TRAP 5500 (Foster City, CA) that was coupled to a Shimadzu LC-20AD pump (Columbia, MD) and a Leap Technologies CTC PAL auto-sampler (Carrboro, NC). Analytes were separated by gradient elution using a C18 column (3 x 50 mm, 3 mm; Fortis Technologies Ltd, Cheshire, UK) that was thermostated at 40 °C. HPLC mobile phase A was 0.1% formic acid in water (pH unadjusted); mobile phase B was 0.1% formic acid in acetonitrile (pH […]
min, with an isocratic hold for 0.5 min, before transitioning to 10% B over 0.05 min. The column was re-equilibrated (1 min) before the next sample injection. The total run time was 2.55 min, and the HPLC flow rate was 0.5 ml/min. The source temperature was set at 500 °C, and mass spectral analyses were performed using a Turbo-Ion spray source in positive ionization mode (5.0-kV spray voltage) and using multiple-reaction monitoring of transitions specific for the analytes. All data were analyzed using AB Sciex Analyst 1.5.1 software.
Brain plasma concentration ratio (Kp) was calculated by dividing brain concentration by plasma concentration for each animal. Unbound brain to unbound plasma concentration ratio (Kp,uu) is calculated using the following formula: Kp,uu = (Brain ng/g x brain fu)/(plasma ng/ml x plasma fu).
In-vitro determination of blood-brain barrier penetration potential
Blood-brain barrier penetration was determined using MDR1-MDCK cell monolayers by Absorption Systems, following their protocol. In short, compounds were incubated at […] final concentration on one side of the cell monolayer for 2 hours. […]

SMILES | Predicted CLhep human [1] [L/h/kg] | CLint scaled at 1 µM [1] [L/h/kg] | Kp uu at 15 min [2] | Kp at 15 min [2]
CC(=O)N1CCC(n2ncc(Cl)c2C(=O)Nc2ncc(C#Cc3ccccc3)cc2C)CC1 [Compound 10, 1-(1-Acetylpiperidin-4-yl)-4-chloro-N-(3-methyl-5-(phenylethynyl)pyridin-2-yl)-1H-pyrazole-5-carboxamide] | 0.294 | 0.36 | 1 | 2.7
CC(=O)N1CC[C@@H](n2ncc(Cl)c2C(=O)Nc2ncc(C#Cc3ccc(F)cc3)cc2C)[C@H](F)C1 [Compound 11, 1-((3R,4R)-1-Acetyl-3-fluoropiperidin-4-yl)-4-chloro-N-(5-((4-fluorophenyl)ethynyl)-3-methylpyridin-2-yl)-1H-pyrazole-5-carboxamide] | 0.42 | 0.6 | 0.1 | 1.5
Cc1cc(C#Cc2ccccc2)cnc1NC(=O)c1cc(OC[C@@H]2COCCO2)ccc1Cl [Compound 7, (S)-5-((1,4-Dioxan-2-yl)methoxy)-2-chloro-N-(3-methyl-5-(phenylethynyl)pyridin-2-yl)benzamide] |  | 3.42 |  | 0.86
Cc1cc(C#Cc2ccccc2)cnc1NC(=O)c1c(Cl)cnn1[C@H]1CCOC1 [Compound 15a, (S)-4-Chloro-N-(3-methyl-5-(phenylethynyl)pyridin-2-yl)-1-(tetrahydrofuran-3-yl)-1H-pyrazole-5-carboxamide] |  | 0.24 |  | 2.8
